Experimental data as given in patent US20040048900A1, “Nicotine and/or nicotine agonists for the treatment of general anesthetic effects and side effects” (priority 2002, published 2004).

How the values were obtained:
[1] = system: mice; test: Nicotine-induced prostration, duration of mecamylamine blockade
Protocol: (§2) The duration of mecamylamine's action was tested with two control experiments. First, 5 mice were injected with mecamylamine 5 mg/kg IP or saline. These mice were then tested at 1-hour intervals with nicotine 1 mg/kg IP. […] Mecamylamine plasma concentration was measured in 5 female mice, 1 hour after I.P. injection using a combination of Gas Chromatography and Mass Spectroscopy described by Jacob et al. (Jacob, 2000).

[2] = system: NMDA; conditions: O'Dell, 1988; Papke, 2001; cited from earlier work
[3] = target: T1, human α4β2 nAChRs expressed in Xenopus oocytes (Homo sapiens, UniProt P17787+P43681); test: Two-microelectrode voltage clamp of ACh-activated currents in Xenopus oocytes; assay type: cell-based
T1 construct: expressed in transfected cells; host or cells: Xenopus laevis oocytes injected with cRNA (1:1 α4 to β2)
T1 sequence (P43681 29-627 limits assumed): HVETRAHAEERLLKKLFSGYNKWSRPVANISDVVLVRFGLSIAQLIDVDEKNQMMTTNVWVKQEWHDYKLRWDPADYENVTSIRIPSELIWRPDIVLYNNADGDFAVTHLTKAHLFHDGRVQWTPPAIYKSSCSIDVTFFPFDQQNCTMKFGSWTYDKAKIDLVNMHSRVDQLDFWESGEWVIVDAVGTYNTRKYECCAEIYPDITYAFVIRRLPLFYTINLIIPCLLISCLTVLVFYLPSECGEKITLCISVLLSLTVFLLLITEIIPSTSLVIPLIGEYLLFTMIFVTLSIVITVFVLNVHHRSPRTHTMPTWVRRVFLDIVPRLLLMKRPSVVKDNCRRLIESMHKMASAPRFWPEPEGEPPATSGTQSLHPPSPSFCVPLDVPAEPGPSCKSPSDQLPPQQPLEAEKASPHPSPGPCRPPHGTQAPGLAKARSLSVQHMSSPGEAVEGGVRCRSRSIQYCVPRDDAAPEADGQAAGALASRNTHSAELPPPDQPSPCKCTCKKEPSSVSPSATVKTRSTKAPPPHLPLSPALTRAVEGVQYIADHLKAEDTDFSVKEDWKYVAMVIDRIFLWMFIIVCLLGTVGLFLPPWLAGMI
T1 sequence (P17787 26-502): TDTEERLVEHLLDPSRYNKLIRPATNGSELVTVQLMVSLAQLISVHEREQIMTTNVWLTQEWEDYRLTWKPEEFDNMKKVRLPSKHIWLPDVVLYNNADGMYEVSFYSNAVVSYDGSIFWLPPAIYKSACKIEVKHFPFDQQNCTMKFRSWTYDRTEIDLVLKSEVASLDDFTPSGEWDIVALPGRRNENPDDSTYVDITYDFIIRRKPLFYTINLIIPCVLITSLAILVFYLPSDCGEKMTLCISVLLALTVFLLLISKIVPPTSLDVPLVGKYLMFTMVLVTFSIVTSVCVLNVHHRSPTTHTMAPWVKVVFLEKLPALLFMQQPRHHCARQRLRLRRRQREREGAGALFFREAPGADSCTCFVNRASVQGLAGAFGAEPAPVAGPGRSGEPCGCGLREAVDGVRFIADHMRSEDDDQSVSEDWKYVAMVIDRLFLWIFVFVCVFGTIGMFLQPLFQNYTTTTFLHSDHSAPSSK
Protocol: The human α4 and β2 type nAChRs were in a pSP64 expression vector. Standard techniques were used to linearize the vectors and use them as templates to make cRNA using SP6 as the polymerase. The human nicotinic clones were a gift from Dr. Jon Lindstrom, Ph.D. (Department of Neuroscience, University of Pennsylvania, Philadelphia, Pa.).
Xenopus laevis oocytes were removed from the females and defolliculated with collagenase. After the oocytes rested for 24 hours in L-15 oocyte medium, about 10 ng of a 1:1 ratio of α4 to β2 cRNA were injected into individual oocytes. A manual injector was used for this process (Nanoject; Drummond Scientific, Broomall, Pa.). The oocytes were incubated for 2-5 days in ND-96 medium (NaCl 96 mM, KCl 2 mM, MgCl2 1 mM, CaCl2 H2O 1.8 mM, HEPES 5 mM, Na-pyruvate 2.5 mM, theophylline 0.5 mM, and 10mg/L of gentamicin, adjusted to pH 7.5).
Whole oocytes were used to record currents using a Gene-Clamp 500 two-microelectrode voltage-clamp amplifier with an active ground (Axon Instruments, Inc., Foster, Cailf.). The recording electrodes were pulled from glass capillary tubing (Drummond, Broomall, Pa.) to obtain a resistance between 1 and 5 MΩ and filled with 3M KCl. Ba^2 Ringer's solution was used as the extracellular solution in order to avoid current amplification by calcium activated chloride currents (115 mM NaCl, 2.5 mM KCl, 1.8 mM BaCl2, 10 mM HEPES, 1 μM atropine, pH 7.4). Atropine was included to avoid activation of intrinsic muscarinic receptors. Experiments were performed at room temperature. Isoflurane was prepared from a saturated solution by serial dilution. Concentrations were verified by gas chromatography.
Oocytes were tested at a membrane potential of −60 mV. Bolus application of the agonist +/− indicated antagonist(s) was applied at a rate of 4 ml/min for a 2 second application.
Antagonists were pre-applied for 2 minutes prior to activation. Concentration response curves were made from the percent change in peak current from ACh activation in the presence of antagonist(s), compared to ACh alone. As the ACh concentration at central neuronal nAChRs is unknown, 1 mM ACh (saturating) was used to detect inhibition by isoflurane and mecamylamine experiments with mecamylamine. ACh 2 μM was used to detect potentiation by nicotine. Currents were measured in 5-8 cells for each data point. Clampex 7 (Axon instruments, Foster City, Calif.) was used for data acquisition.
Microcal Origins 5.0 (Microcal, Northampton, Mass.) was used for statistical calculations and graphical presentation. The in vitro data were fit to a modified Hill equation, y=100/(1+(x/IC50)^n), where IC50 is the concentration of drug at which of 50% of the response is inhibited and n is the Hill coefficient.

[4] = system: seizures induced by NMDA; conditions: McDonough, 1995; cited from earlier work
[5] = in vivo; conditions: female, mouse, plasma, 5 mg/kg
Protocol: as §2

[6] = system: mice
Source text: Nicotinic acetylcholine receptors are involved in the mechanism of isoflurane hyperalgesia, and nicotinic inhibition could be the initiating event.
(§1) How could nicotinic inhibition cause hyperalgesia? Nicotine is thought to exert its analgesic action by increasing the release of norepinephrine, serotonin and acetylcholine onto the relay neurons in the dorsal horn of the spinal cord (Rao, 1996; and Reuter, 2000). Isoflurane might reduce pain threshold by inhibiting nicotinic acetylcholine receptors tonically active in potentiating the release of norepinephrine, serotonin and/or acetylcholine. To test the role of the α-adrenergic system, mice were treated systemically with the adrenergic neurotoxin DSP-4 to deplete norepinephrine levels (Jonsson, 1981). The DSP-4 mice 14 days after treatment were tested for HPWL in the presence of isoflurane alone or isoflurane with nicotine pretreatment (see methods).
To test the role of muscarinic receptors for acetylcholine, mice were treated with the nonspecific muscarinic antagonist, atropine. A cholinergic neurotoxin could not be used for these studies, because removing all cholinergic neurons would have nicotinic in addition to muscarinic effects. Instead, postsynaptic muscarinic blockade was used. ACh causes analgesia, at least in part due to muscarinic stimulation (Chiari, 1999; Smith, 1989; and Lavand'homme, 1999). […] High concentrations of atropine can block nicotinic acetylcholine receptors as well (Zwart, 1997).

[7] = system: norepinephrine levels in brain and spinal cord; test: HPLC of norepinephrine, 5-HT, dopamine and metabolites after DSP-4; assay type: in vivo, mice; conditions: DSP4-treated n = 2
Source text: as §1
The HPLC procedures were conducted according to the methods described by Underwood et al. (Underwood, 1999).

[8] = Qian, 1993; Badio, 1994; cited from earlier work
[9] = system: ^3H-norepinephrine release from female mouse lumbar spinal cord slice; test: 3H-norepinephrine release from superfused spinal cord slice; conditions: 1 mM nicotine in perfusion buffer, p<0.02
Source text: Spinal Cord Slice Preparation: The spinal cord was dissected from the mouse. Under CO2 narcosis the mouse was decapitated. The spinal column was removed and placed into cold dissection solution where the spinal cord was removed with a dissection microscope. The lumbar section of the cord was isolated and imbedded in a 3% low melting point agar (Fisher Scientific) block made in dissection solution. Transverse 400 micrometer slices were made using a Vibratone VT1000S slicing apparatus (Leica, Whetzlar, Germany). Slicing was performed in ice cold Krebs solution bubbled with 5%CO2/95%O2.
The cord slices were incubated in a solution of 1 ml of Krebs solution and 10 ul of 1-[7,8-^3H] noradrenaline in a closed environment surrounded by Krebs solution bubbled with CO2/O2 for 30 minutes. The slices were transferred into a superfusion and stimulation chamber (Warner Instruments Inc.,) where Krebs solution was allowed to perfuse over them for 30 minutes at a rate of 0.5 ml/min. The superfusion chamber thermostatically temperature controlled at 37° C. The solutions were pumped to the chamber at a constant rate of 0.5 ml/min using a Kwik-Pump 290 (Long). Following a 30 minute period for equilibration, collections were taken every 1-2.5 minutes. Ecolite scintillation fluid (15 ml) was then added to each collection vial. The samples were analyzed for radioactivity (CPM) using a Packard TRI CARB 2100 TR scintillation counter (Meriden, Conn.).
Dissection Krebs Solution (mM) NaCl 125, KCl 2.5, NaHCO3 26, NaH2PO4-H2O1.25, MgCl2 6,CaCl2 1.5, glucose 2.5. Perfusion Krebs Solution (mM) NaCl 125, KCl 2.5, NaHCO3 26, NaH2PO4—H2O 1.25, MgCl2 1,CaCl2 2, glucose 2.5.
After incubation with ^3H-norepinephrine, the cord slices were perfused with buffer for 30 minutes at 0.5 ml/minute. After equilibration, samples containing released ^3H-norepinephrine were collected at 2.5 minute intervals. After determination of baseline release, the slices were stimulated with 1 mM nicotine in the perfusion buffer.

[10] = system: non-smoking volunteers; conditions: cited from earlier work
[11] = system: women having pelvic surgery
Protocol: In a double blind, randomized trial of women having pelvic surgery with an isoflurane anesthetic, either nicotine (nasal spray, 3 mg) or saline placebo was administered just prior to emergence from anesthesia. Postoperative pain was assessed using the visual analog scale (VAS). In the VAS, patients are asked how much pain they have on a scale from 0-10 where 0 is no pain and 10 is the worst pain imaginable. All patients had access to essentially unlimited morphine in a PCA pump as is routine after this type of surgery.

[12] = nicotine 1 mg/kg, Thompson, 1982, cited from earlier work
[13] = 3 mg intranasally, Fishbein, 2000
[14] = 3 mg intranasally, Guthrie, 1999

In the case of `CNC1(C)C2CCC(C2)C1(C)C` (stereo not drawn) [mecamylamine], the “duration of blockade of prostration from nicotine 1 mg/kg IP” value ([1]; mecamylamine 5 mg/kg IP, tested at 1-hour intervals) is listed as “up to 4 hours”, the “concentration range with NMDA antagonist properties” value [2] is listed as roughly 100 µM and the “mode of antagonism at heteromeric nAChRs” value [3] is listed as “non-competitive antagonists”. The IC50 ([3]; 1 mM ACh, −60 mV, room temperature, read-out: IC50 for inhibition of α4β2 nAChR) was 290 ± 50 nM, the “interaction of mecamylamine and isoflurane applied together (isobolographic analysis)” value ([3]; inhibition of α4β2 nAChR activation) was “within the 95% confidence intervals for additivity” and the “ED50 for inhibition of seizures induced by NMDA” value [4] was 12 ± 3.2 mg/kg. The concentration at 1 h ([5]; intraperitoneal) was 200 ± 70 nM and the concentration at 1 h ([5]; ip) was 203 nM.
In the case of `CN1[C@@H]2CC[C@H]1C[C@@H](OC(=O)C(CO)c1ccccc1)C2` (stereo partly drawn) [atropine], the “effect on hyperalgesic response to isoflurane” value ([6]; atropine 5 mg/kg) is reported as “had no effect on the hyperalgesic response to isoflurane” and the “minimum concentration that caused baseline hyperalgesia” value ([6]; mouse, in vivo) is reported as 5 mg/kg.
In the case of `CCN(CCCl)Cc1ccccc1Br` [DSP4], the “MHPG concentration (HPLC)” value ([7]; Brain Stem, control 253.3) is reported as 104.9, the “HVA concentration (HPLC)” value ([7]; Brain Stem, control 300.1) is reported as 275.2 and the “DA concentration (HPLC)” value ([7]; Brain Stem, control 599.2) is reported as 621.0. The “DOPAC concentration (HPLC)” value ([7]; Brain Stem, control 662.4) was 494.6, the “NE concentration (HPLC)” value ([7]; Brain Stem, control 1044.1) was 811.2 and the “5-HT concentration (HPLC)” value ([7]; Brain Stem, control 2336.9) was 2140.3. For the same compound, the “5HIAA concentration (HPLC)” value ([7]; Brain Stem, control 2972.1) was 2746.9, the “HVA concentration (HPLC)” value ([7]; Medulla, control 118.5) was 88.0 and the “DA concentration (HPLC)” value ([7]; Medulla, control 168.7) was 138.2. The “MHPG concentration (HPLC)” value ([7]; Medulla, control 194.5) was 139.3, the “DOPAC concentration (HPLC)” value ([7]; Medulla, control 248.3) was 196.0 and the “5-HT concentration (HPLC)” value ([7]; Medulla, control 1152.5) was 1054.9. For the same compound, the “5HIAA concentration (HPLC)” value ([7]; Medulla, control 1184.1) was 1302.6, the “NE concentration (HPLC)” value ([7]; Medulla, control 1408.8) was 812.0 and the “HVA concentration (HPLC)” value ([7]; Pons, control 100.7) was 181.6. For the same compound, the “DA concentration (HPLC)” value ([7]; Pons, control 128.1) was 379.6, the “MHPG concentration (HPLC)” value ([7]; Pons, control 235.9) was 122.1 and the “DOPAC concentration (HPLC)” value ([7]; Pons, control 341.8) was 345.3. The “5-HT concentration (HPLC)” value ([7]; Pons, control 996.8) was 1597.6, the “5HIAA concentration (HPLC)” value ([7]; Pons, control 1334.6) was 2024.7 and the “NE concentration (HPLC)” value ([7]; Pons, control 1345.9) was 811.6. The “HVA concentration (HPLC)” value ([7]; Spinal cord, control 38.2) was 23.0, the “MHPG concentration (HPLC)” value ([7]; Spinal cord, control 82.5) was 62.6 and the “DOPAC concentration (HPLC)” value ([7]; Spinal cord, control 136.4) was 118.8. The “DA concentration (HPLC)” value ([7]; Spinal cord, control 182.6) was 210.9, the “NE concentration (HPLC)” value ([7]; Spinal cord, control 798.8) was 587.6 and the “5HIAA concentration (HPLC)” value ([7]; Spinal cord, control 1057.9) was 1111.3. The “5-HT concentration (HPLC)” value ([7]; Spinal cord, control 1122.1) was 808.6.
In the case of `Clc1ccc(C2CC3CCC2N3)cn1` (stereo not drawn) [Epibatidine], the “potency for analgesia relative to morphine” value [8] is given as “approximately 200 times”.
In the case of `CN1CCC[C@H]1c1cccnc1` [nicotine, (s)-(−)-nicotine], the “time until mice lay prone” value ([1]; nicotine 1 mg/kg IP, mice not pretreated with mecamylamine) is given as no more than 5 min, the “release of ^3H-norepinephrine” value [9] is given as “caused an increase in the release of ^3H-norepinephrine” and the “average increase in systolic blood pressure” value [10, 13] is given as 7 mM of mercury. For the same compound, the “diastolic blood pressure or heart rate” value [10, 13] was “no change”, the arterial peak concentration [10, 14] was 100 µM and the “steady state venous concentration” value [10, 14] was 30 µM. The “time of peak effect” value ([10]; intranasal nicotine) was “peak effect in five minutes”, the “time until effect is dissipated” value ([10]; intranasal nicotine) was “dissipated in about one hour” and the “current relative to ACh 2 μM alone in presence of isoflurane” value ([3]; ACh 2 μM nicotine 2 μM, given concentration of isoflurane) was “always larger”. For the same compound, the “current relative to ACh alone” value ([3]; nicotine 2 μM added to ACh 2 μM) was “produces a larger current than ACh alone”, the ill effects ([11]; nicotine nasal spray 3 mg) was “no severe ill effects” and the “postoperative pain, VAS scores” value ([11]; nicotine nasal spray 3 mg prior to emergence vs saline placebo) was “significantly lower VAS scores”. For the same compound, the heart rate ([11]; nicotine nasal spray 3 mg vs placebo) was “higher heart rates”, the “morphine used in the first hour (PCA pump)” value ([11]; nicotine nasal spray 3 mg, placebo 12 mg) was 4 mg and the blood pressures ([11]; with or without nicotine) was “not different”. The “detectability by HPLC at 40 minutes” value [12] was “undetectable by HPLC at 40 minutes”, the peak concentration ([12]; at 5 minutes) was “approximately 2 μM” and the “analgesia by ICV nicotine” value ([6]; mouse, in vivo) was “caused significant analgesia both in the presence and absence of isoflurane”. The “effect of ICV nicotine on isoflurane hyperalgesia” value ([6]; mouse, in vivo) was “did not prevent hyperalgesia with isoflurane”, the “protection against isoflurane hyperalgesia in presence of atropine” value ([6]; nicotine 1 mg/kg, atropine 5 mg/kg) was “remained protective against the hyperalgesia” and the “effect on HPWL in DSP-4 treated mice” value ([6]; nicotine pretreatment, baseline or isoflurane) was “without effect”.
